Source: PubChem BioAssay (NCI)
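Grown in 96-well plates, cells were treated for 48 hours with each compound at five concentrations. Insufficient inhibition: endpoint recorded as highest concentration tested. The concentration for 50% growth inhibition is given as GI50. TGI marks complete inhibition of growth.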

How the values were obtained:
Experiment in all cases: inhibition of tumour cell growth, NCI panel, 48 h
HL-60(TB) leukemia = test system: HL-60(TB) leukemia
K-562 leukemia = test system: K-562 leukemia
UACC-257 melanoma = test system: UACC-257 melanoma
OVCAR-3 ovarian = test system: OVCAR-3 ovarian
KM12 colon = test system: KM12 colon
OVCAR-5 ovarian = test system: OVCAR-5 ovarian
SF-539 CNS = test system: SF-539 CNS
OVCAR-8 ovarian = test system: OVCAR-8 ovarian
NCI/ADR-RES ovarian = test system: NCI/ADR-RES ovarian
UACC-62 melanoma = test system: UACC-62 melanoma
HT29 colon = test system: HT29 colon
TK-10 renal = test system: TK-10 renal
LOX IMVI melanoma = test system: LOX IMVI melanoma
HOP-62 NSCLC = test system: HOP-62 NSCLC
MDA-MB-435 = test system: MDA-MB-435
SN12C renal = test system: SN12C renal
BT-549 breast = test system: BT-549 breast
HCT-15 colon = test system: HCT-15 colon
HS 578T breast = test system: HS 578T breast
SK-OV-3 ovarian = test system: SK-OV-3 ovarian
SK-MEL-28 melanoma = test system: SK-MEL-28 melanoma
SF-295 CNS = test system: SF-295 CNS
HCT-116 colon = test system: HCT-116 colon
SR leukemia = test system: SR leukemia
EKVX NSCLC = test system: EKVX NSCLC
RXF 393 renal = test system: RXF 393 renal
SW-620 colon = test system: SW-620 colon
MCF7 breast = test system: MCF7 breast
A549 NSCLC = test system: A549 NSCLC
MDA-MB-231 breast = test system: MDA-MB-231 breast
NCI-H522 lung = test system: NCI-H522 lung
DU-145 prostate = test system: DU-145 prostate
CAKI-1 renal = test system: CAKI-1 renal
NCI-H460 lung = test system: NCI-H460 lung
SF-268 CNS = test system: SF-268 CNS
786-0 renal = test system: 786-0 renal
SK-MEL-5 melanoma = test system: SK-MEL-5 melanoma
M14 melanoma = test system: M14 melanoma
T-47D breast = test system: T-47D breast
NCI-H23 lung = test system: NCI-H23 lung
SK-MEL-2 melanoma = test system: SK-MEL-2 melanoma
SNB-19 CNS = test system: SNB-19 CNS
U251 CNS = test system: U251 CNS
RPMI-8226 leukemia = test system: RPMI-8226 leukemia
A498 renal = test system: A498 renal
OVCAR-4 ovarian = test system: OVCAR-4 ovarian
NCI-H226 lung = test system: NCI-H226 lung
CCRF-CEM leukemia = test system: CCRF-CEM leukemia
COLO 205 colon = test system: COLO 205 colon
SNB-75 CNS = test system: SNB-75 CNS
MALME-3M melanoma = test system: MALME-3M melanoma
IGROV1 ovarian = test system: IGROV1 ovarian
MOLT-4 leukemia = test system: MOLT-4 leukemia
HCC-2998 colon = test system: HCC-2998 colon
UO-31 renal = test system: UO-31 renal
ACHN renal = test system: ACHN renal
PC-3 prostate = test system: PC-3 prostate
HOP-92 NSCLC = test system: HOP-92 NSCLC

## CCOC(=O)/C=C1/SC(N2CCCCC2)C(=O)N1CC (stereo unspecified)
HL-60(TB) leukemia
  GI50: > 100 µM
  TGI: > 100 µM
K-562 leukemia
  GI50: > 100 µM
  TGI: > 100 µM
UACC-257 melanoma
  GI50: > 100 µM
  TGI: > 100 µM
OVCAR-3 ovarian
  GI50: > 100 µM
  TGI: > 100 µM
KM12 colon
  GI50: > 100 µM
  TGI: > 100 µM
OVCAR-5 ovarian
  GI50: > 100 µM
  TGI: > 100 µM
SF-539 CNS
  GI50: > 100 µM
  TGI: > 100 µM
OVCAR-8 ovarian
  GI50: > 100 µM
  TGI: > 100 µM
NCI/ADR-RES ovarian
  GI50: > 100 µM
  TGI: > 100 µM
UACC-62 melanoma
  GI50: > 100 µM
  TGI: > 100 µM
HT29 colon
  GI50: > 100 µM
  TGI: > 100 µM
TK-10 renal
  GI50: > 100 µM
  TGI: > 100 µM
LOX IMVI melanoma
  GI50: > 100 µM
  TGI: > 100 µM
HOP-62 NSCLC
  GI50: > 100 µM
  TGI: > 100 µM
MDA-MB-435
  GI50: > 100 µM
  TGI: > 100 µM
SN12C renal
  GI50: > 100 µM
  TGI: > 100 µM
BT-549 breast
  GI50: > 100 µM
  TGI: > 100 µM
HCT-15 colon
  GI50: > 100 µM
  TGI: > 100 µM
HS 578T breast
  GI50: > 100 µM
  TGI: > 100 µM
SK-OV-3 ovarian
  GI50: > 100 µM
  TGI: > 100 µM
SK-MEL-28 melanoma
  GI50: > 100 µM
  TGI: > 100 µM
SF-295 CNS
  GI50: > 100 µM
  TGI: > 100 µM
HCT-116 colon
  GI50: > 100 µM
  TGI: > 100 µM
SR leukemia
  GI50: > 100 µM
  TGI: > 100 µM
EKVX NSCLC
  GI50: > 100 µM
  TGI: > 100 µM
RXF 393 renal
  GI50: > 100 µM
  TGI: > 100 µM
SW-620 colon
  GI50: > 100 µM
  TGI: > 100 µM
MCF7 breast
  GI50: > 100 µM
  TGI: > 100 µM
A549 NSCLC
  GI50: > 100 µM
  TGI: > 100 µM
MDA-MB-231 breast
  GI50: > 100 µM
  TGI: > 100 µM
NCI-H522 lung
  GI50: > 100 µM
  TGI: > 100 µM
DU-145 prostate
  GI50: > 100 µM
  TGI: > 100 µM
CAKI-1 renal
  GI50: > 100 µM
  TGI: > 100 µM
NCI-H460 lung
  GI50: > 100 µM
  TGI: > 100 µM
SF-268 CNS
  GI50: > 100 µM
  TGI: > 100 µM
786-0 renal
  GI50: > 100 µM
  TGI: > 100 µM
SK-MEL-5 melanoma
  GI50: > 100 µM
  TGI: > 100 µM
M14 melanoma
  GI50: > 100 µM
  TGI: > 100 µM
T-47D breast
  GI50: > 100 µM
  TGI: > 100 µM
NCI-H23 lung
  GI50: > 100 µM
  TGI: > 100 µM
SK-MEL-2 melanoma
  GI50: > 100 µM
  TGI: > 100 µM
SNB-19 CNS
  GI50: > 100 µM
  TGI: > 100 µM
U251 CNS
  GI50: > 100 µM
  TGI: > 100 µM
RPMI-8226 leukemia
  GI50: > 100 µM
  TGI: > 100 µM
A498 renal
  GI50: > 100 µM
  TGI: > 100 µM
OVCAR-4 ovarian
  GI50: > 100 µM
  TGI: > 100 µM
NCI-H226 lung
  GI50: > 100 µM
  TGI: > 100 µM
CCRF-CEM leukemia
  GI50: > 100 µM
  TGI: > 100 µM
COLO 205 colon
  GI50: > 100 µM
  TGI: > 100 µM
SNB-75 CNS
  GI50: > 100 µM
  TGI: > 100 µM
MALME-3M melanoma
  GI50: > 100 µM
  TGI: > 100 µM
IGROV1 ovarian
  GI50: > 100 µM
  TGI: > 100 µM
MOLT-4 leukemia
  GI50: > 100 µM
  TGI: > 100 µM
HCC-2998 colon
  GI50: > 100 µM
  TGI: > 100 µM
UO-31 renal
  GI50: > 100 µM
  TGI: > 100 µM
ACHN renal
  GI50: > 100 µM
  TGI: > 100 µM
PC-3 prostate
  GI50: > 100 µM
  TGI: > 100 µM
HOP-92 NSCLC
  GI50: > 100 µM
  TGI: > 100 µM
